Data reported in US8017584B2, “GD3-mimetic peptides” (Otsuka Pharmaceutical Co., Ltd., priority 2000, dated 2011).

Columns and labels:
[1] = system: binding between GD3 and 4F6; assay: Inhibition by exogenously added MAPs of binding between GD3 and 4F6 (Example 5(4), FIG. 5); parameters: species or system mouse; conditions: for inhibitory effect of exogenously added sample on binding between GD3 and 4F6 (words, FIG. 5): added simultaneously with 4F6 to GD3 100 ng/well; for order of binding strength to 4F6: deduced from FIG. 5
Protocol: (4) Next, investigation was made as to whether binding between GD3R3 or GD3R4 and 4F6 occurred at the GD3 binding site of 4F6. To the wells of a plate to which GD3 had been immobilized (100 ng/well), each of the MAP samples having a variety of concentrations shown on the X-axis in FIG. 5 and 4F6 (100 μL/well) were simultaneously added, whereby an inhibitory test was performed. The test was performed in triplicate, and the values in the graph are “mean ±SD.”

anti-GD3 antibody 4F6 = assay: ELISA of MAPs immobilized at various amounts with 4F6 (Example 5(2), FIG. 3); format: binding, mouse; conditions: MAPs or GD3 immobilized at various amounts
Description: (1) In a manner similar to that described in Example 3, peptides of N-terminus 9 amino acid residues or C-terminus 9 amino acid residues of GD3R1, GD3R2, GD3R3, or GD3R4. The nomenclature and sequences of respective peptides employed in the present test are shown in FIG. 2 These were employed as multi-antigen peptides (MAPs). (2) In order to extend the research on bonding between the anti-GD3 antibody 4F6 and each of the GD3-mimetic peptides shown in FIG. 1, multi-antigen peptides (MAPs) were subjected to ELISA. MAP samples having a variety of concentrations shown on the X-axis in FIG. 3 were provided, and each sample was immobilized onto the wells of a 96-well plate. Subsequently, the wells were blocked with a blocking solution (TBS supplemented with 1% BSA, 0.1% skim milk, and 0.02% Tween 20) at 4° C. overnight. 4F6 (hybridoma supernatant: used in the neat form) was added (100 μL/well) for reaction at room temperature for 2 hours. After completion of reaction, the supernatant was discarded, and the wells were washed with a washing solution (TBS supplemented with 1% FBS and 0.05% Tween 20) six times. Subsequently, the wells were allowed to react with peroxidase-labeled anti-mouse IgG (diluted 1,000-fold with a blocking solution) at room temperature for 2 hours. The wells were again washed with a washing solution four times, and the amount of peroxidase enzyme remaining in each well was detected and quantitatively determined with the substrate TMB, whereby binding of MAP to 4F6 was investigated. The test was performed in triplicate, and the values in the graph are “mean ±SD.”

Sequence | inhibitory effect of exogenously added sample on binding between GD3 and 4F6 (words, FIG. 5) [1] | order of binding strength to 4F6 [1] | binding of 4F6 to immobilized sample (words, FIG. 3) (anti-GD3 antibody 4F6) | binding to anti-GD3 antibody 4F6, overall conclusion ([1]; taken together, Example 5)
RHAYRSMAEWGFLYS (RHAYRSMAQWGFLYS) [GD3R4, tested as phage clone, MAP form or peptide] | did not | GD3>GD3R3>GD3R4 | in an amount-dependent manner | –
GLAPPDYAERFELLS [GD3R3, tested as phage clone, MAP form or peptide] | exhibited inhibitory effect | GD3>GD3R3>GD3R4 | in an amount-dependent manner | the strongest in binding
